# Source: PubChem BioAssay AID540349 (The Scripps Research Institute Molecular Screening Center, 2011)
# Activity calls are given as the source filed them. The rule behind the calls is not given here.
# Target: Sphingosine 1-phosphate receptor 3 (Homo sapiens) (UniProt Q99500)
# Test: activation of S1P3 receptor – cell-based, fluorescence, synthesized compounds, SAR follow-up (AID 540349)
# Details: S1P3-expressing cells, agonist fluorescence read-out
# Chain of Sphingosine 1-phosphate receptor 3 (Homo sapiens) (Q99500 whole entry, looked up): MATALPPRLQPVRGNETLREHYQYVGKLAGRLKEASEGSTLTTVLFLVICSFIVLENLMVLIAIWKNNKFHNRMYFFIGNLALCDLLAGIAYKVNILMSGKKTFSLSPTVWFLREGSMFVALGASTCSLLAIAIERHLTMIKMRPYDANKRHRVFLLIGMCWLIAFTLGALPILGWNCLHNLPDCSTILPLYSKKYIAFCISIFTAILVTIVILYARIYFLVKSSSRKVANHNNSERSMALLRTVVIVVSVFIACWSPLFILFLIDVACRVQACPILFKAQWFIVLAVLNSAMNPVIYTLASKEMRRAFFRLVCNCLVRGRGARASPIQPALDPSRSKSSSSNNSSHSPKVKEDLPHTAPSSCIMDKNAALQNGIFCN
SMILES,EC50 (run 1),EC50 (run 2),EC50 (run 3)
O=C(NC1CCCCC1)c1cc(C2CC2)on1,> 10000 nM (inactive),> 50000 nM (inactive),> 50000 nM (inactive)
CC(C)c1cc(C(=O)N(C2CCCCC2)C2CCCCC2)no1,1410 nM,799 nM,668 nM
O=C(c1cc(C2CC2)on1)N(Cc1ccccc1)c1ccccn1,6890 nM,7540 nM,5230 nM
COc1ccc(-c2cc(C(=O)N(C3CCCCC3)C3CCCCC3)no2)cc1,583 nM,173 nM,212 nM
O=C(c1cc(C2CC2)on1)N(C1CCCCC1)C1CCCCC1,72.3 nM,132 nM,112 nM
COc1ccc(N(Cc2ccccc2)C(=O)c2cc(C3CC3)on2)cc1,> 10000 nM (inactive),inactive,inactive
O=C(c1cc(-c2ccccc2)on1)N(C1CCCCC1)C1CCCCC1,216 nM,35.2 nM,58.9 nM
COc1ccc(-c2cc(C(=O)N(C3CCCCC3)C3CCCCC3)no2)cc1OC,> 10000 nM (inactive),> 50000 nM (inactive),> 50000 nM (inactive)
O=C(c1cc(C2CC2)on1)N(Cc1ccccc1)Cc1ccccc1,> 10000 nM (inactive),> 50000 nM (inactive),> 50000 nM (inactive)
CC1CCCCC1N(C(=O)c1cc(C2CC2)on1)C1CCCCC1C (configuration not stated),280 nM,126 nM,200 nM
CCCc1cc(C(=O)NC2CCCCC2)no1,> 10000 nM (inactive),> 50000 nM (inactive),> 50000 nM (inactive)
CCOc1ccc(-c2nc(C(=O)N(C3CCCCC3)C3CCCCC3)co2)cc1OCC,> 10000 nM (inactive),8010 nM,8130 nM
CCCc1cc(C(=O)N(C2CCCCC2)C2CCCCC2)no1,495 nM,335 nM,471 nM
O=C(c1cc(C2CC2)on1)N(CC1CCCCC1)C1CCCCC1,6400 nM,2160 nM,1730 nM
O=C(c1coc(C2CC2)n1)N(C1CCCCC1)C1CCCCC1,> 10000 nM (inactive),> 50000 nM (inactive),> 50000 nM (inactive)
O=C(c1noc2ccccc12)N(C1CCCCC1)C1CCCCC1,> 10000 nM (inactive),> 50000 nM (inactive),> 50000 nM (inactive)
O=C(c1cc(C2CC2)on1)N(C1CCCCC1)C1CCOCC1,3830 nM,3730 nM,3050 nM
O=C(c1cc(C2CC2)on1)N(Cc1ccccc1)c1ccccc1,7620 nM,8130 nM,5250 nM
O=C(c1cc(C2CC2)on1)N(C1CCCCCC1)C1CCCC1,3910 nM,2390 nM,1960 nM
CC(C)Cc1cc(C(=O)N(C2CCCCC2)C2CCCCC2)no1,2080 nM,785 nM,1260 nM
CCN(CC)C(=O)c1cc(C2CC2)on1,> 10000 nM (inactive),> 50000 nM (inactive),> 50000 nM (inactive)
CC1CCCCC1N(C(=O)c1cc(C2CC2)on1)C1CCCCC1 (configuration not stated),349 nM,326 nM,337 nM
O=C(c1cc(-c2ccccc2)on1)N(C1CCCCC1)C1CCCC1,1550 nM,519 nM,472 nM
CC1CCCCC1N(C(=O)c1cc(C2CC2)on1)C1CCOCC1 (configuration not stated),> 10000 nM (inactive),2230 nM,3410 nM
CC1CCCCC1N(C(=O)c1cc(C2CC2)on1)C1CCCCCC1 (configuration not stated),842 nM,285 nM,478 nM
CCCc1cc(C(=O)N(C2CCCCC2)C2CCCC2)no1,> 10000 nM (inactive),inactive,5670 nM
CC1CCCCC1N(C(=O)c1cc(C2CC2)on1)C1CCCC1 (configuration not stated),2610 nM,1080 nM,1530 nM
O=C(c1cc(C2CC2)on1)N(C1CCCCC1)C1CCCC1,2770 nM,1220 nM,1060 nM
O=C(c1ccc(C2CC2)o1)N(C1CCCCC1)C1CCCCC1,> 10000 nM (inactive),> 50000 nM (inactive),> 50000 nM (inactive)
